Measured values: US20240025852A1, “T-TYPE CALCIUM CHANNEL MODULATORS AND METHODS OF USE THEREOF” (PRAXIS PRECISION MEDICINES, INC., priority 2020, published 2024)

How the values were obtained:
[1] = biological target: T1, Recombinant CYP3A4 Supersomes (Homo sapiens, UniProt P08684); assay: Recombinant CYP3A4 Clearance Assay; format: in vitro ADME; settings: for % of Control (intrinsic clearance relative to the control compound): observed CLint divided by average CLint of undeuterated control compound; for Half-Life / CLint: recombinant CYP3A4 50 pmol/mL, 1 μM substrate, NADPH; for Half-Life: 0-120 minutes; for CLint: control = geometric mean of 3 replicates
T1 construct: purchased
Method: The CYP3A4 Clearance Assay was performed to determine the stability of deuterated compounds described herein and calculate changes in clearance relative to the control compound (undeuterated compound) that has the following structure:
Recombinant CYP3A4 Supersomes were prepared in 100 mM potassium phosphate buffer (50 pmol/mL final recombinase) and 80 μL aliquots were delivered per well to 96-well reaction plates containing 10 μL/well stock working solution containing substrate at 10× final concentration in 0.1:9.9:90 DMSO:ACN:100 mM phosphate buffer. Final substrate concentration during incubation was 1 μM. Reaction mixtures were pre-incubated at 37° C. for 10 minutes, prior to addition of 10 μL/well of NADPH regenerating system to initiate the reaction (β-Nicotinamide adenine dinucleotide phosphate) or 100 mM phosphate as a buffer control.
Clearance assessments were performed for test compounds in singlicate except for the control compound, which was tested in triplicate. Incubations were maintained at 37° C. for 0, 5, 15, 30, 45, 60, 90, and 120 minutes (or 0 and 120 minutes for buffer control). The reactions were terminated with 3× volume of cold (4° C.) acetonitrile (ACN) containing 200 ng/mL tolbutamide and 200 ng/mL labetalol as internal standards (IS). The crash plates were centrifuged at 4000 rpm at 4° C. for 20 min to precipitate residual protein. Following protein precipitation, sample supernatants were harvested and 3× volume of HPLC grade water was added to each sample for chromatography purposes. Plates were sealed and shaken for 10 minutes prior to LC-MS/MS analysis using generic LCMS/MS conditions.
(§1) LC-MS/MS chromatograms were analyzed by peak area ratio (test article peak area/internal standard peak area) and natural log transformed, and plotted against time. The slope of the line was determined to calculate elimination rate constant. Subsequently, half-life (t1/2) and intrinsic clearance (CLint) were calculated using the following equations: […]
Average intrinsic clearance of the control compound was determined by taking the geometric mean of 3 replicates.

[2] = tested on: HμRELhumanPool 96-well hepatic co-culture; assay: Hμrel Low Clearance Assay; format: in vitro ADME, human; set-up: % of Control (intrinsic clearance relative to the control compound): tested at 1 µM; settings: for Half-Life: human hepatic co-culture, 1 μM substrate, 0-72 hr incubation; for % of Control (intrinsic clearance relative to the control compound): observed CLint divided by average CLint of undeuterated control compound
Method: (§2) The Hμrel Low Clearance Assay was performed to determine the stability of deuterated compounds described herein and calculate changes in clearance relative to the control compound (undeuterated compound) that has the following structure:
(§3) HμRELhumanPool™ 96-well hepatic co-culture plates were media changed and cells were allowed to acclimatize at 37° C. for 20 hr. HμREL® incubation media (serum free) and test compound diluted from a 1000×DMSO stock (final substrate concentration 1 μM; final DMSO concentration 0.1%) were added to the HμREL© 96-well co-culture system at a final cell number of 30,000 cells per well to initiate the reaction. The final incubation volume was 80 μL per time point and two control compounds were included for reference (ketoprofen and prednisolone). All clearance assessments were performed in singlicate with the exception of the undeuterated control compound, which was tested in duplicate on two separate days for a total of 4 replicates. Each compound was incubated for 0, 2, 6, 24, 48 and 72 hr. The reactions were terminated by transferring 60 μL of incubate to 180 μL acetonitrile containing internal standard at the appropriate time points. The crash plates were centrifuged at 3000 rpm at 4° C. for 20 min to precipitate residual protein. Following protein precipitation, sample supernatants were combined in cassettes of up to 4 compounds and analyzed using generic LCMS/MS conditions.
as §1
(§4) Average clearance of the control compound was determined by taking the geometric mean of 3 of the four replicates. The fourth replicate was excluded from the average determination as an outlier.

[3] = Hμrel Low Clearance Assay; format: in vitro ADME, human; set-up: % of Control (intrinsic clearance relative to the control compound): tested at 1 µM; settings: HμRELhumanPool 96-well hepatic co-culture, human hepatic co-culture, 1 μM substrate, 0-72 hr incubation, control = geometric mean of 3 replicates
Method: as §2, §3, §1, §4

T1 sequence (P08684 whole entry): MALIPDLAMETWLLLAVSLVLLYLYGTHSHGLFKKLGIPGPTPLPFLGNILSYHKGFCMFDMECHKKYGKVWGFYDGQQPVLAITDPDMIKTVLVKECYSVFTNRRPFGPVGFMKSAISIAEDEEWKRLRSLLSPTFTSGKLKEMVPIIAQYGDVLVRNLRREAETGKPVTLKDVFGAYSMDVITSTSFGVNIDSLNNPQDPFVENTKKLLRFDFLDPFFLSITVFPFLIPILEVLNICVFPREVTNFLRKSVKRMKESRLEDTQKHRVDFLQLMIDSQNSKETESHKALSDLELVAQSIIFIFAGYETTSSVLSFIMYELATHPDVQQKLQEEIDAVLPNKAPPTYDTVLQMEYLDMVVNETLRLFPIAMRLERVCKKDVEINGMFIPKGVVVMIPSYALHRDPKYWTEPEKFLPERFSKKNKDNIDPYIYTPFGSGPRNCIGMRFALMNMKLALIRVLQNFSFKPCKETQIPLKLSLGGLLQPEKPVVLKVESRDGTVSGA

| SMILES | % of Control (intrinsic clearance relative to the control compound) [1] [%] | Half-Life [1] [h] | CLint [1] [µL/min/pmol] | Half-Life [2] [h] | % of Control (intrinsic clearance relative to the control compound) [2] [%] | hepatocyte CLint at 1 μM ([3]; human) [µL/min/1e6 cells] | hepatocyte CLint at 1 μM [3] [µL/min/1e6 cells] |
| --- | --- | --- | --- | --- | --- | --- | --- |
| [2H]C1([2H])N(CC(=O)NC(C)(C)C)C([2H])([2H])C([2H])([2H])C([2H])(CNC(=O)c2cc(F)cc(Cl)c2)C1([2H])[2H] [Compound 1, N-[[1-[2-(tert-butylamino)-2-oxo-ethyl]-2,2,3,3,4,5,5,6,6-nonadeuterio-4-piperidyl]methyl]-3-chloro-5-fluoro-benzamide] | 65.3 | 0.202 | 1.15 | 57.17 | 38.1 | 0.539 | – |
| [2H]C1([2H])CC(CNC(=O)c2cc(F)cc(Cl)c2)CC([2H])([2H])N1CC(=O)NC(C)(C)C [Compound 2, N-[[1-[2-(tert-butylamino)-2-oxo-ethyl]-2,2,6,6-tetradeuterio-4-piperidyl]methyl]-3-chloro-5-fluoro-benzamide] | 68.5 | 0.192 | 1.21 | 25.5 | 85.5 | – | 1.21 |
| [2H]C1([2H])CN(CC(=O)NC(C)(C)C)CC([2H])([2H])C1CNC(=O)c1cc(F)cc(Cl)c1 [Compound 3, N-[[1-[2-(tert-butylamino)-2-oxo-ethyl]-3,3,5,5-tetradeuterio-4-piperidyl]methyl]-3-chloro-5-fluoro-benzamide] | 82.3 | 0.16 | 1.45 | 21 | 104 | 1.47 | – |
| [2H]C([2H])(NC(=O)c1cc(F)cc(Cl)c1)C1CCN(CC(=O)NC(C([2H])([2H])[2H])(C([2H])([2H])[2H])C([2H])([2H])[2H])CC1 [Compound 5, 3-chloro-N-[dideuterio-[1-[2-oxo-2-[[2,2,2-trideuterio-1,1-bis(trideuteriomethyl)ethyl]amino]ethyl]-4-piperidyl]methyl]-5-fluoro-benzamide] | 94.1 | 0.14 | 1.66 | 23.33 | 93.3 | 1.32 | – |
| [2H]C([2H])(C(=O)NC(C)(C)C)N1CCC(CNC(=O)c2cc(F)cc(Cl)c2)CC1 [Compound 6, N-[[1-[2-(tert-butylamino)-1,1-dideuterio-2-oxo-ethyl]-4-piperidyl]methyl]-3-chloro-5-fluoro-benzamide] | 77.2 | 0.17 | 1.36 | 21.83 | 99.6 | 1.41 | – |
| [2H]C1([2H])CN(CC(=O)NC(C)(C)C([2H])([2H])[2H])CC([2H])([2H])C1CNC(=O)c1cc(F)cc(Cl)c1 [Compound 9, 3-chloro-5-fluoro-N-[[3,3,5,5-tetradeuterio-1-[2-oxo-2-[(2,2,2-trideuterio-1,1-dimethyl-ethyl)amino]ethyl]-4-piperidyl]methyl]benzamide] | 76.6 | 0.172 | 1.35 | 26.17 | 83.4 | 1.18 | – |

More lines, main results first:

| % of Control (intrinsic clearance relative to the control compound) [1] [%] | Half-Life [1] [h] | CLint [1] [µL/min/pmol] | Half-Life [2] [h] | % of Control (intrinsic clearance relative to the control compound) [2] [%] | hepatocyte CLint at 1 μM ([3]; human) [µL/min/1e6 cells] | SMILES | hepatocyte CLint at 1 μM [3] [µL/min/1e6 cells] |
| --- | --- | --- | --- | --- | --- | --- | --- |
| 98.6 | 0.133 | 1.74 | 20.5 | 106 | 1.5 | [2H]C([2H])(NC(=O)c1cc(F)cc(Cl)c1)C1CCN(CC(=O)NC(C)(C)C)CC1 [Compound 4, N-[[1-[2-(tert-butylamino)-2-oxo-ethyl]-4-piperidyl]-dideuterio-methyl]-3-chloro-5-fluoro-benzamide] | – |
| 100 | 0.132 | 1.76 | 21.83 | 99.6 | 1.41 | [2H]C([2H])([2H])C(C)(C)NC(=O)CN1CCC(CNC(=O)c2cc(F)cc(Cl)c2)CC1 [Compound 7, 3-chloro-5-fluoro-N-[[1-[2-oxo-2-[(2,2,2-trideuterio-1,1-dimethyl-ethyl)amino]ethyl]-4-piperidyl]methyl]benzamide] | – |
| 88.4 | 0.148 | 1.56 | 24 | 90.5 | 1.28 | [2H]C1([2H])CN(CC(=O)NC(C([2H])([2H])[2H])(C([2H])([2H])[2H])C([2H])([2H])[2H])CC([2H])([2H])C1CNC(=O)c1cc(F)cc(Cl)c1 [Compound 8, 3-chloro-5-fluoro-N-[[3,3,5,5-tetradeuterio-1-[2-oxo-2-[[2,2,2-trideuterio-1,1-bis(trideuteriomethyl)ethyl]amino]ethyl]-4-piperidyl]methyl]benzamide] | – |
| 81.1 | 0.162 | 1.43 | 33.83 | 64.3 | 0.91 | [2H]C([2H])(NC(=O)c1cc(F)cc(Cl)c1)C1CCN(CC(=O)NC(C)(C)C([2H])([2H])[2H])CC1 [Compound 10, 3-chloro-N-[dideuterio-[1-[2-oxo-2-[(2,2,2-trideuterio-1,1-dimethyl-ethyl)amino]ethyl]-4-piperidyl]methyl]-5-fluoro-benzamide] | – |
| 60.3 | 0.218 | 1.06 | 45.5 | 47.8 | 0.676 | [2H]C([2H])([2H])C(NC(=O)CN1C([2H])([2H])C([2H])([2H])C([2H])(CNC(=O)c2cc(F)cc(Cl)c2)C([2H])([2H])C1([2H])[2H])(C([2H])([2H])[2H])C([2H])([2H])[2H] [Compound 12, 3-chloro-5-fluoro-N-[[2,2,3,3,4,5,5,6,6-nonadeuterio-1-[2-oxo-2-[[2,2,2-trideuterio-1,1-bis(trideuteriomethyl)ethyl]amino]ethyl]-4-piperidyl]methyl]benzamide] | – |
| 105 | 0.125 | 1.85 | 34.83 | 62.5 | 0.885 | [2H]C([2H])([2H])C(C)(NC(=O)CN1CCC(CNC(=O)c2cc(F)cc(Cl)c2)CC1)C([2H])([2H])[2H] [Compound 14, 3-chloro-5-fluoro-N-[[1-[2-oxo-2-[[2,2,2-trideuterio-1-methyl-1-(trideuteriomethyl)ethyl]amino]ethyl]-4-piperidyl]methyl]benzamide] | – |
